“And” between values parts separate entries of the source, which are not always exact repeats. Identical values can stand only once.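 Results reflect a 48-hour exposure of cells in 96-well plates to compound at five concentrations. The concentration for 50% growth inhibition is given as GI50. TGI denotes the concentration required for complete inhibition of growth.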
Experiments:
Assay in all cases: NCI anticancer screen, dose series, 48 h
CAKI-1 renal = system: CAKI-1 renal
DU-145 prostate = system: DU-145 prostate
MALME-3M melanoma = system: MALME-3M melanoma
MCF7 breast = system: MCF7 breast
NCI-H23 lung = system: NCI-H23 lung
PC-3 prostate = system: PC-3 prostate
RPMI-8226 leukemia = system: RPMI-8226 leukemia
SK-MEL-28 melanoma = system: SK-MEL-28 melanoma
SNB-19 CNS = system: SNB-19 CNS
SR leukemia = system: SR leukemia

SMILES	GI50 (CAKI-1 renal) [µM]	TGI (CAKI-1 renal) [µM]	GI50 (DU-145 prostate)	TGI (DU-145 prostate) [µM]	GI50 (MALME-3M melanoma) [µM]	TGI (MALME-3M melanoma)	GI50 (MCF7 breast) [µM]	TGI (MCF7 breast) [µM]	GI50 (NCI-H23 lung)	TGI (NCI-H23 lung) [µM]	GI50 (PC-3 prostate) [µM]	TGI (PC-3 prostate) [µM]	GI50 (RPMI-8226 leukemia)	TGI (RPMI-8226 leukemia) [µM]	GI50 (SK-MEL-28 melanoma)	TGI (SK-MEL-28 melanoma) [µM]	GI50 (SNB-19 CNS) [µM]	TGI (SNB-19 CNS) [µM]	GI50 (SR leukemia)	TGI (SR leukemia) [µM]
C=C1[C@H](O)C[C@@H](C(C)C(O)CC=C(C)C)[C@@H](O)[C@@H]2C(C)=CC[C@@H]12 (some centres undefined)	> 100	> 100	> 100 µM	> 100	> 100	> 100 µM	> 100	> 100	> 100 µM	> 100	> 100	> 100	> 100 µM	> 100	> 100 µM	> 100	> 100	> 100	> 100 µM	> 100
OCC1OC(N2CCN(C3OC(CO)C(O)C(O)C3O)CC2)C(O)C(O)C1O (centres undefined)	–	> 100	–	> 100	–	> 100 µM	–	> 100	–	> 100	–	> 100	–	> 100	–	> 100	–	> 100	–	> 100
O=C(Nc1ccn(C2CCC(COC(c3ccccc3)(c3ccccc3)c3ccccc3)O2)c(=O)n1)c1ccccc1 (centres undefined)	–	13.4	–	15.5	–	9.91 µM	–	10.2	–	7.8	–	5.71	–	5.21	–	16.9	–	14.8	–	4.82
C=C1CC2(CC(c3ccccc3C)OC(c3ccccc3C)C2)OC1=O (centres undefined)	–	4.26	–	24.6	–	3.29 µM	–	3.87	–	3.9	–	5.78	–	4.12	–	4.27	–	30.8	–	> 26.8
NC(=O)C1CCCN1Cc1ccc2c(c1)OCO2 (centres undefined)	–	> 100	–	> 100	–	> 100 µM	–	> 100	–	> 100	–	> 100	–	> 100	–	> 100	–	> 100	–	> 100
CC(=O)OCc1cc[c]([Hg][Cl])o1	10.4	23.5	13.6 µM	26.4	1.6	3.27 µM	0.994	18.3	12.1 µM	29.7	11	24.2	4.69 µM	34.9	2.73 µM	7.84	3.08	12	0.619 µM	12.3
C#Cc1cccc(NC(=O)C2CCCCN2C(=O)CCl)c1 (centres undefined)	13.4	26.3	24.4 µM	> 82.5	9.93	22.4 µM	15.8	> 82.5	10.7 µM	28.2	32.9	> 82.5	18 µM	51.5	54.1 µM	> 82.5	> 82.5	> 82.5	3.6 µM	66.8
O=C(C#Cc1ccccc1)N1CCCCC1	–	> 100	–	> 100	–	> 100 µM	–	> 100	–	> 100	–	> 100	–	> 100	–	> 100	–	> 100	–	> 100
CN1CCN(CCCn2c3c(sc4ncccc43)c(=O)n3nnc(-c4ccccc4)c23)CC1	1.59	3.19	1.67 µM	3.24	6.38	11.8 µM	1.72	3.16	1.97 µM	4.38	1.61	4.03	2.08 µM	5.3	18 µM	32.2	2.48	5.82	0.241 µM	0.603
Cc1cc(C(=O)NOCCO)c(Nc2ccc(I)cc2F)n(C)c1=O	0.185	> 100	> 10 µM and 53.8 µM	> 100	< 0.01	0.0115 µM and < 0.01 µM	> 100	> 100	0.0237 µM and 0.0131 µM	> 100	> 100	> 100	> 10 µM and 37.9 µM	> 100	0.00227 µM and < 0.01 µM	–	6.08	> 100	> 10 µM and 29.5 µM	> 100
COc1cc2cc(C(=O)Nc3ccccc3)c(N)nc2cc1OC	34.5	> 100	80.3 µM	> 100	44.3	> 100 µM	48.8	> 100	73.9 µM	> 100	31.2	> 100	28.3 µM	> 100	75.4 µM	> 100	> 100	> 100	33.9 µM	> 100
COc1ccc(/C=C2\CCC(C)(CN(C)C)C2=O)cc1Br (centres undefined)	–	> 91.6	–	> 100	–	61.9 µM	–	42.1	–	> 95.1	–	39.7	–	58.4	–	45.4	–	47.8	–	45.7
O=C(Nc1c(Cl)cccc1Cl)Oc1cccc2cccnc12	3.19	24.4	11.7 µM	> 100	6.19	81 µM	2.99	> 100	4.07 µM	45.5	6.26	> 100	3.64 µM	47.7	7.28 µM	75.2	5.74	> 100	3.59 µM	30.4
